The supplement of paper PMC7285287
Counter-ions that a name gives are not always drawn. ± gives the standard deviation of the averaged measurements.

System: Candida albicans SNY425 biofilm
Assay: biofilm OD600 relative to DMSO control (fraction of DMSO control); higher = more biofilm (less inhibition)
Protocol: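 C. albicans SNY425 biofilm optical density assays (OD600 of the adhered biofilm after media removal) in RPMI-MOPS pH 7.0 at 37 °C with shaking. Groups of 4 to 8 wells per compound are averaged and normalised to the average of DMSO loading control wells. Adherence inhibition was tested at 10 and 40 µM, sustained inhibition and disruption at 40 µM, and the MBIC series at 200 to 0.78 µM.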

[1] = 0.78 µM, assay detail: sustained inhibition (MBIC series), 384-well, compound during adherence and 24 h growth
[2] = 3.125 µM, assay detail: sustained inhibition (MBIC series), 384-well, compound during adherence and 24 h growth
[3] = 10 µM, assay detail: adherence inhibition, 96-well, compound during 90 min adherence only
[4] = 12.5 µM, assay detail: sustained inhibition (MBIC series), 384-well, compound during adherence and 24 h growth
[5] = 40 µM, assay detail: adherence inhibition, 96-well, compound during 90 min adherence only
[6] = 40 µM, assay detail: disruption, 384-well, compound added to 24 h mature biofilm for further 24 h
[7] = 40 µM, assay detail: sustained inhibition, 384-well, compound during adherence and 24 h growth
[8] = 50 µM, assay detail: sustained inhibition (MBIC series), 384-well, compound during adherence and 24 h growth
[9] = 200 µM, assay detail: sustained inhibition (MBIC series), 384-well, compound during adherence and 24 h growth

Row | Structure (SMILES) | biofilm OD600 [1] | biofilm OD600 [2] | biofilm OD600 [3] | biofilm OD600 [4] | biofilm OD600 [5] | biofilm OD600 [6] | biofilm OD600 [7] | biofilm OD600 [8] | biofilm OD600 [9]
1 | Nc1nc(=O)[nH]cc1F [flucytosine] | 0.866 | 0.873 | 0.907 | 0.862 | 0.776 | 0.983 ± 0.06 | 0.798 ± 0.066 | 0.758 | 0.719
2 | Cc1c(OCC(F)(F)F)ccnc1C[S@@+]([O-])c1nc2ccccc2[nH]1 [dexlansoprazole] | 0.981 | 0.887 | 0.925 | 0.833 | 0.837 | 1.01 ± 0.024 | 0.7 ± 0.091 | 0.643 | 0.625
3 | C[C@@H]1CC[C@H]2[C@@H](C)C(=O)O[C@@H]3O[C@@]4(C)CC[C@@H]1[C@]32OO4 [artemisinin] | 1.09 | 1.06 | 1.14 | 1.01 | 0.966 | 0.955 ± 0.017 | 0.838 ± 0.019 | 0.893 | 0.744
4 | COC(=O)C1=C(C)NC(C)=C(C(=O)OCC(C)C)C1c1ccccc1[N+](=O)[O-] (stereo unspecified) [nisoldipine] | 0.962 | 1.01 | 0.914 | 0.989 | 0.888 | 1.01 ± 0.051 | 0.65 ± 0.077 | 0.549 | 0.397
5 | NC(=O)NC(=O)Cc1ccccc1 [phenacemide] |  |  | 1.05 |  | 0.929 | 1.015 ± 0.0049 | 1.02 ± 0.065 |  | 
6 | CC[C@H]1OC(=O)[C@H](C)[C@@H](O[C@H]2C[C@@](C)(OC)[C@@H](O)[C@H](C)O2)[C@H](C)[C@@H](O[C@@H]2O[C@H](C)C[C@H](N(C)C)[C@H]2O)[C@](C)(O)C[C@@H](C)C(=O)[C@H](C)[C@@H](O)[C@]1(C)O [erythromycin] |  |  | 0.879 |  | 0.874 | 1.03 ± 0.026 | 1.03 ± 0.017 |  | 
7 | Oc1ncnc2[nH]ncc12 [Allopurinol] |  |  | 0.938 |  | 0.887 | 1.02 ± 0.07 | 0.982 ± 0.038 |  | 
8 | Cc1ccc(-c2nc3ccc(C)cn3c2CC(=O)N(C)C)cc1 [zolpidem] |  |  | 0.924 |  | 0.858 | 1.005 ± 0.0066 | 0.981 ± 0.055 |  | 
9 | CN1CCC[C@@H]1Cc1c[nH]c2ccc(CCS(=O)(=O)c3ccccc3)cc12 [eletriptan hydrobromide] |  |  | 0.99 |  | 0.945 | 1.014 ± 0.0095 | 1 ± 0.026 |  | 
10 | CCC(=O)Oc1ccc2c(c1)CC[C@@H]1[C@@H]2CC[C@]2(C)[C@@H](OC(=O)CC)CC[C@@H]12 [estradiol dipropionate] |  |  | 0.958 |  | 0.844 | 0.954 ± 0.037 | 0.987 ± 0.012 |  | 
11 | CNCCCC1c2ccccc2C=Cc2ccccc21 [Protriptyline hydrochloride] |  |  | 1.05 |  | 0.899 | 1.01 ± 0.012 | 1.02 ± 0.022 |  | 
12 | CCCCCCCCCCCCCCCCOP(=O)([O-])OCC[N+](C)(C)C [miltefosine] | 0.9 | 0.9 | 0.99 | 1.08 | 0.844 | 1.09 ± 0.035 | 0.222 ± 0.015 | 0.298 | 0.259
13 | N[C@@H](C(=O)N[C@@H]1C(=O)N2C(C(=O)O)=C(Cl)CS[C@H]12)c1ccccc1 [cefaclor] |  |  | 1.07 |  | 0.896 | 1.03 ± 0.028 | 0.983 ± 0.032 |  | 
14 | CCN(CC)C(=O)C1(c2ccccc2)CC1CN (stereo unspecified) [milnacipran hydrochloride] |  |  | 0.934 |  | 0.943 | 0.977 ± 0.026 | 0.962 ± 0.018 |  | 
